Measurements: patent publication US11547697B2, “Heterocyclic compounds and uses thereof” (MILLENNIUM PHARMACEUTICALS, INC., priority 2009, dated 2023)
Where two headings read alike, the source gives them in different places.

What was measured:
p110α/p85α = p110α/p85α (Homo sapiens (Human), UniProt P42336); experiment: PI 3-Kinase (human) HTRF assay, p110α/p85α; format: biochemical
p110β/p85α = p110β/p85α (Homo sapiens (Human), UniProt P42338); experiment: PI 3-Kinase (human) HTRF assay, p110β/p85α; format: biochemical
Chain of p110β/p85α (P42338 whole entry): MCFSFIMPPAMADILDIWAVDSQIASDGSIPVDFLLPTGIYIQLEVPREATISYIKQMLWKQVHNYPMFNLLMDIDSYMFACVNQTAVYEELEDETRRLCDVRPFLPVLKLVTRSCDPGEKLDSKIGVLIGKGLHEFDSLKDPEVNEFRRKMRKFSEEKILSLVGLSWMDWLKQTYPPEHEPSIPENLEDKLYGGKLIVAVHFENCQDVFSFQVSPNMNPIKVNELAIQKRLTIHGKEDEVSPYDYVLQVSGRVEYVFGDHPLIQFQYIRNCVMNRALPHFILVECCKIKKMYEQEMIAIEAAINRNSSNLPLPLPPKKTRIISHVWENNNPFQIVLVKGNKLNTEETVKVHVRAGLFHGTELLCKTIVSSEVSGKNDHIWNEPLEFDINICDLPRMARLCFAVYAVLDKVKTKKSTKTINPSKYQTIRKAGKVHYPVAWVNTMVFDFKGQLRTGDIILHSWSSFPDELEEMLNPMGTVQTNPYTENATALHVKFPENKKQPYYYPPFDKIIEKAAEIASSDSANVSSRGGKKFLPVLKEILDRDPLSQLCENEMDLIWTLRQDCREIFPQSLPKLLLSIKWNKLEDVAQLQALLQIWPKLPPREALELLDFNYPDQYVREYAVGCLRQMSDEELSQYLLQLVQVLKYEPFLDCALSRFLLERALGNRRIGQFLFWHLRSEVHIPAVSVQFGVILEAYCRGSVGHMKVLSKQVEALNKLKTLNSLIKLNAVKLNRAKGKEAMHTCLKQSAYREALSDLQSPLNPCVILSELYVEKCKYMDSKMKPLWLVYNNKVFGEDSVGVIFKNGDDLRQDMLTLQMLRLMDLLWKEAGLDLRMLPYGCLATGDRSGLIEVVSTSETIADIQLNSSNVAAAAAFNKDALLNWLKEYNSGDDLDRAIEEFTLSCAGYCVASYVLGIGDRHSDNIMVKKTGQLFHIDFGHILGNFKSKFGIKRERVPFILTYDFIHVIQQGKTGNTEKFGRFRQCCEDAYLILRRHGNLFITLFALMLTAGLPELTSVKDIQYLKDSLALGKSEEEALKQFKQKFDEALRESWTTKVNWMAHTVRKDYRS
Chain of p110β/p85α (P27986 whole entry partner): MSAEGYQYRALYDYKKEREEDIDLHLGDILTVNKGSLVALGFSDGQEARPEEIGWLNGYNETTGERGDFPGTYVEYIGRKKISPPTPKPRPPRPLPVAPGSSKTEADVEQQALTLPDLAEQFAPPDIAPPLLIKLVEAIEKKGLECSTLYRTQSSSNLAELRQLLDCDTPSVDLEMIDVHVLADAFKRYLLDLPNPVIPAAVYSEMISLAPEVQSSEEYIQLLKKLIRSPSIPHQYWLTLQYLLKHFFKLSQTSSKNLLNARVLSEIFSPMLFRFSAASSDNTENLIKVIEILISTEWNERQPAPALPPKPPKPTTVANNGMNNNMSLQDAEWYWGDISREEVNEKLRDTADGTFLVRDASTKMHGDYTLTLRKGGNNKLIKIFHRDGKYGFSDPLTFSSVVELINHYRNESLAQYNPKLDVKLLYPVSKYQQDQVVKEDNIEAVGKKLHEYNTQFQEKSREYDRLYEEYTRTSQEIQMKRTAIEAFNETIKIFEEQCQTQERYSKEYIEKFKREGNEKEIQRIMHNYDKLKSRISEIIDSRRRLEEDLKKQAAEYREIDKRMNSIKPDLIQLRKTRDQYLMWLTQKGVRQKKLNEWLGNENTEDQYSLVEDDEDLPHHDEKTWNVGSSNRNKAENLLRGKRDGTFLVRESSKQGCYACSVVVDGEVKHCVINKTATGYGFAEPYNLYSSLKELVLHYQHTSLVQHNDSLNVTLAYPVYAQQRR

p110γ = p110γ (Homo sapiens (Human), UniProt P48736); experiment: PI 3-Kinase (human) HTRF assay, p110γ; format: biochemical
Chain of p110γ (P48736 whole entry): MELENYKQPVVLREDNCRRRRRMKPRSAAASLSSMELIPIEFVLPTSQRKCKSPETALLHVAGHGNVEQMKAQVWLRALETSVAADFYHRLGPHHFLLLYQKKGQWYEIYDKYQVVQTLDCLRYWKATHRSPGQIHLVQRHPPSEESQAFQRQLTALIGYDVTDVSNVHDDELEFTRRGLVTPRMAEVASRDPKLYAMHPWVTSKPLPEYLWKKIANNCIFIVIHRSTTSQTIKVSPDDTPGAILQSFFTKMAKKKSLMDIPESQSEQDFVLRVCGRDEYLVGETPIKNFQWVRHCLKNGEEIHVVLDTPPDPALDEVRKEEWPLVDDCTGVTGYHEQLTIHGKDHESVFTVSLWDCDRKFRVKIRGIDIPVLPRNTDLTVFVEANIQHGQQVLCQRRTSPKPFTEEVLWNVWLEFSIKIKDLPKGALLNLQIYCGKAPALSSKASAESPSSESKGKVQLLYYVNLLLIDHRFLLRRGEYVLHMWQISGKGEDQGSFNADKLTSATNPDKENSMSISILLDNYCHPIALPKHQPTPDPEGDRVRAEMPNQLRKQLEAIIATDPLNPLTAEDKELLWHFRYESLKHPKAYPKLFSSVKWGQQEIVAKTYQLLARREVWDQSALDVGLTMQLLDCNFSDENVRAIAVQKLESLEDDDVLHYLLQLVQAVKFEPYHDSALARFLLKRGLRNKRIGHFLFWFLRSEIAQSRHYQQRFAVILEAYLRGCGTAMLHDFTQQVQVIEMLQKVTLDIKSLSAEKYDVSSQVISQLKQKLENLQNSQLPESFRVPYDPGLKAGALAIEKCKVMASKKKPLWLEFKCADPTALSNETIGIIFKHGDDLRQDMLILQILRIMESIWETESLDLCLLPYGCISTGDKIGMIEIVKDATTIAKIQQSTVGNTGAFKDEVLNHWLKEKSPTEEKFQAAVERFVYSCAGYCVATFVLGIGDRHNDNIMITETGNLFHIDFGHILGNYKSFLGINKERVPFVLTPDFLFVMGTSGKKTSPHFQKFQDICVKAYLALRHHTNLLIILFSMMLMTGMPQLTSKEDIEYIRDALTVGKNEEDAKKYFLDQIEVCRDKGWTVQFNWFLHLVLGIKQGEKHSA

[1] = tested on: tumor cells with a PI3Kα mutation (e.g., MDA-MB-361 and T47D); experiment: Proliferation of tumor cells with PI3Kα mutation; format: cell-based; conditions: Homo sapiens
p110δ/p85α = p110δ/p85α (Homo sapiens (Human), UniProt O00329); experiment: PI 3-Kinase (human) HTRF assay, p110δ/p85α; format: biochemical
Chain of p110δ/p85α (O00329 whole entry): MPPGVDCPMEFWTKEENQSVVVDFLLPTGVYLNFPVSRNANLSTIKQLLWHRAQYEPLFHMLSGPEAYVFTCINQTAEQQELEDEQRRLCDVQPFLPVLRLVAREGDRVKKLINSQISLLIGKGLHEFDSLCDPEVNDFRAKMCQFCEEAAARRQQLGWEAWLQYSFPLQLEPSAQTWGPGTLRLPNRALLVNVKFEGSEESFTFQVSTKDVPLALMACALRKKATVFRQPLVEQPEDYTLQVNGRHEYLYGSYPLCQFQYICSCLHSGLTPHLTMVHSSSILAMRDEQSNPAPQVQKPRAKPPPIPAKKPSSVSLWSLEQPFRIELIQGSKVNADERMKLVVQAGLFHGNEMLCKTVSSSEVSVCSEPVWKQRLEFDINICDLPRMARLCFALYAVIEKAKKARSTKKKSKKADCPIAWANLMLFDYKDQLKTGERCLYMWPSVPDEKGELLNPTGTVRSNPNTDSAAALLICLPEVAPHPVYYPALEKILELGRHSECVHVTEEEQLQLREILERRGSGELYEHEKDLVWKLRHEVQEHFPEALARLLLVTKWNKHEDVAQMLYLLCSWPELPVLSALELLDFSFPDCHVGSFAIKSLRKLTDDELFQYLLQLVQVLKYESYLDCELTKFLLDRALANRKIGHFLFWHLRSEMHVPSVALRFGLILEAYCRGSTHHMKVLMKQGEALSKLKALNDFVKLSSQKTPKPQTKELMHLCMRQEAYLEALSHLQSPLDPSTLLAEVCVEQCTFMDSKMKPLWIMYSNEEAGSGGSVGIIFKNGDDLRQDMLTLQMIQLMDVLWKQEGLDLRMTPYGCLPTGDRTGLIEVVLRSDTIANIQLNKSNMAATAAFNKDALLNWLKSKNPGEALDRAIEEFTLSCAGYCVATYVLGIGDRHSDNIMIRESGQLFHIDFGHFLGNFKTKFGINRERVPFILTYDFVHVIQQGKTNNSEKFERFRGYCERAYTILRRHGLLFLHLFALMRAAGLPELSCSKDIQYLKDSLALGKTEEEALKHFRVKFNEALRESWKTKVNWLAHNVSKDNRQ
Chain of p110δ/p85α (P27986 whole entry partner): as the sequence (P27986 whole entry partner) above

[2] = in vitro, read-out: PI3K α IC50
[3] = in vitro, read-out: PI3K β IC50
[4] = in vitro, read-out: PI3K γ IC50
[5] = T47D cells, read-out: T47D proliferation IC50
[6] = in vitro, read-out: PI3K δ IC50
[7] = PC3, read-out: PC3 proliferation In Vitro IC50

Chain of p110α/p85α (P42336 whole entry): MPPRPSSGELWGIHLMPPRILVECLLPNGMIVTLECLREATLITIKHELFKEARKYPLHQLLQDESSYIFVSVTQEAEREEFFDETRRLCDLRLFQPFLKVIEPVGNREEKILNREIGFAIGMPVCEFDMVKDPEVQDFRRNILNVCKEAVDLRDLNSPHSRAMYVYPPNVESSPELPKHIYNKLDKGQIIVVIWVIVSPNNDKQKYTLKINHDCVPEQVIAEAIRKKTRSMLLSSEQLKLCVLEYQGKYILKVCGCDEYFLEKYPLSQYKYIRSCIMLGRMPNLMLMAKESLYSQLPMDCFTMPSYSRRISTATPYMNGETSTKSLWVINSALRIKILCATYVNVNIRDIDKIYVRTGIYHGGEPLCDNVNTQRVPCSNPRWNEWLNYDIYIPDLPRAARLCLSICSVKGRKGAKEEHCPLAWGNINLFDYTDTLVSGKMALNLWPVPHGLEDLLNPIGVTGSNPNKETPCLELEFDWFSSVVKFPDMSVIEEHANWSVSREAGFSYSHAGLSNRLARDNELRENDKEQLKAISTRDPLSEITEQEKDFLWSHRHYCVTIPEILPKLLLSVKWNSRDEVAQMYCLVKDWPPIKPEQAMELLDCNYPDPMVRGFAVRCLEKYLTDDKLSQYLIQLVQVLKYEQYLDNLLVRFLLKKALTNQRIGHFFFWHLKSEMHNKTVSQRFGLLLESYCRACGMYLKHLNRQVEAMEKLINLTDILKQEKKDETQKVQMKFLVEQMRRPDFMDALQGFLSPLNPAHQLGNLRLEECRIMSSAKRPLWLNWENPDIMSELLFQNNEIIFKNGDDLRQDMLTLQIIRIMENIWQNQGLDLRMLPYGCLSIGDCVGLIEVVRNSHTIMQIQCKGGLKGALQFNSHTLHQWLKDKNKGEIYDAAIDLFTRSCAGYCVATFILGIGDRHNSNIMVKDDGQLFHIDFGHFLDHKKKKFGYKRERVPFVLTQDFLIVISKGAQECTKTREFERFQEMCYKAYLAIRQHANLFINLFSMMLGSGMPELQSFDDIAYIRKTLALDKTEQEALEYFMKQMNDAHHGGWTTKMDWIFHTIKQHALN
Chain of p110α/p85α (P27986 whole entry partner): as the sequence (P27986 whole entry partner) above

Row | IC50 (p110α/p85α; [2]) | IC50 (p110β/p85α; [3]) | IC50 (p110γ; [4]) | IC50 [1, 5] | IC50 (p110δ/p85α; [6]) | IC50 (p110α/p85α; read-out: PI3K α In Vitro IC50) | IC50 (p110β/p85α; read-out: PI3K β In Vitro IC50) | IC50 (p110δ/p85α; read-out: PI3K δ In Vitro IC50) | IC50 (p110γ; read-out: PI3K γ In Vitro IC50) | IC50 [1, 7] | Compound
1 | < 100 nM | < 1 µM | < 1000 nM | < 10 µM | – | – | – | – | – | – | Nc1nc2cc(-c3ccc4ncc(N5CCN(C6CC6)CC5)nc4c3)ccc2o1 [compound 261]
2 | < 100 nM | – | < 1000 nM | < 10 µM | – | – | – | – | – | – | NC(=O)[C@@H]1CCCN1C(=O)C1CN(c2cnc3ccc(-c4ccc5oc(N)nc5c4)cc3n2)C1 [compound 283]
3 | < 100 nM | – | < 100 nM | < 10 µM | < 10 µM | – | – | – | – | – | Cc1ccc(NC(=O)c2cnc3ccc(-c4ccc5oc(N)nc5c4)cn23)cn1 [compound 294]
4 | < 100 nM | < 10 µM | – | < 1 µM | < 10 µM | – | – | – | – | – | Nc1nc2cc(-c3ccc4ncc(N5CC(N6CCN(CC7CC7)CC6)C5)nc4c3)ccc2o1 [compound 335]
5 | < 1000 nM | – | < 10000 nM | < 10 µM | < 10 µM | – | – | – | – | – | Nc1nc2cc(-c3ccc4ncc(N5CC(N6CCC(O)CC6)C5)nc4c3)ccc2o1 [compound 341]
6 | – | – | – | – | – | < 100 nM | < 10 µM | < 1 µM | < 100 nM | – | COc1ncc(-c2ccc3ncc(C(=O)N4CCOCC4)n3c2)cc1NS(=O)(=O)c1ccccc1F [compound 422]
7 | – | – | – | – | – | < 100 nM | < 1 µM | < 0.1 µM | < 100 nM | – | COc1ncc(-c2ccc3ncc(C(=O)N4CCOCC4)n3c2)cc1NS(=O)(=O)c1cccc(F)c1 [compound 423]
8 | – | – | – | – | – | < 1000 nM | < 1 µM | < 10 µM | < 100 nM | – | Nc1nc2ccc(-c3cc(F)c4oc(N)nc4c3)cc2o1 [compound 433]
9 | – | – | – | – | – | < 100 nM | < 0.1 µM | < 0.1 µM | < 100 nM | – | CC(=O)Nc1nc2ccc(-c3cc(F)c4oc(N)nc4c3)cc2s1 [compound 434]
10 | – | – | – | – | – | < 100 nM | < 0.1 µM | < 1 µM | < 100 nM | – | Nc1nc2cc(-c3ccc4nc(N)sc4c3)cc(F)c2o1 [compound 436]
11 | – | – | – | – | – | < 1000 nM | < 10 µM | < 10 µM | < 10000 nM | – | O=C(c1cnc2ccc(-c3ccc(Cl)c(NS(=O)(=O)c4ccc(F)cc4F)c3)cn12)N1CCOCC1 [compound 461]
12 | – | – | – | – | – | < 100 nM | < 10 µM | < 10 µM | < 1000 nM | – | CO[C@H]1CCN(C(=O)c2cnc3ccc(-c4ccc5oc(N)nc5c4)cn23)C1 [compound 463]
13 | – | – | – | – | – | < 100 nM | – | – | < 1000 nM | < 10 µM | CO[C@@H]1CCN(C(=O)c2cnc3ccc(-c4ccc5oc(N)nc5c4)cn23)C1 [compound 464]
14 | – | – | – | – | – | < 1000 nM | < 10 µM | < 10 µM | < 1000 nM | – | Nc1nc2cc(-c3ccc4ncc(C(=O)N5CC[C@@H](N6CCOCC6)C5)n4c3)ccc2o1 [compound 466]
15 | – | – | – | – | – | < 100 nM | – | – | < 100 nM | < 10 µM | Nc1nc2cc(-c3ccc4ncc(C(=O)N5CCC(F)(F)C5)n4c3)ccc2o1 [compound 471]
16 | – | – | – | – | – | < 100 nM | – | – | < 100 nM | < 1 µM | Nc1nc2cc(-c3ccc4ncc(C(=O)N5CC(F)(F)C5)n4c3)ccc2o1 [compound 473]
17 | – | – | – | – | – | < 100 nM | < 10 µM | < 10 µM | < 1000 nM | – | C[C@@H]1CCCN1C(=O)c1cnc2ccc(-c3ccc4oc(N)nc4c3)cn12 [compound 481]
18 | – | – | – | – | – | < 100 nM | < 10 µM | – | < 10000 nM | < 10 µM | C[C@H]1COCCN1C(=O)c1cnc2ccc(-c3ccc4oc(N)nc4c3)cn12 [compound 483]
19 | – | – | – | – | – | < 1000 nM | < 10 µM | < 10 µM | < 1000 nM | – | CC(C)N1CCC(n2cnc3ccc(-c4cncc(NS(=O)(=O)c5ccc(F)cc5F)c4)cc3c2=O)CC1 [compound 519]
20 | – | – | – | – | – | < 100 nM | < 0.1 µM | < 0.1 µM | < 1000 nM | – | CC(C)N1CCC(n2cnc3ccc(-c4cnc(Cl)c(NS(=O)(=O)c5ccccc5)c4)cc3c2=O)CC1 [compound 521]
21 | – | – | – | – | – | < 100 nM | < 1 µM | < 0.1 µM | < 10000 nM | – | COc1ncc(-c2ccc3ncn(C4CCN(C)CC4)c(=O)c3c2)cc1NS(C)(=O)=O [compound 525]
22 | – | – | – | – | – | < 100 nM | < 10 µM | < 1 µM | – | < 10 µM | CN1CCC(n2cnc3ccc(-c4cnc(Cl)c(NS(C)(=O)=O)c4)cc3c2=O)CC1 [compound 526]
23 | – | – | – | – | – | < 100 nM | < 0.1 µM | < 0.1 µM | < 1000 nM | – | CN1CCC(n2cnc3ccc(-c4cnc(Cl)c(NS(=O)(=O)c5ccccc5)c4)cc3c2=O)CC1 [compound 527]

Row | Compound | IC50 (p110α/p85α; [2]) | IC50 (p110β/p85α; [3]) | IC50 (p110γ; [4]) | IC50 [1, 5] | IC50 (p110δ/p85α; [6]) | IC50 (p110α/p85α; read-out: PI3K α In Vitro IC50) | IC50 (p110β/p85α; read-out: PI3K β In Vitro IC50) | IC50 (p110δ/p85α; read-out: PI3K δ In Vitro IC50) | IC50 (p110γ; read-out: PI3K γ In Vitro IC50) | IC50 [1, 7]
24 | Nc1nc2cc(-c3ccc4ncc(C(=O)N5C6CCC5COC6)n4c3)ccc2o1 [compound 480] | – | – | – | – | – | < 100 nM | – | < 10 µM | < 1000 nM | < 1 µM
